Measurements published in ChEMBL document CHEMBL3832761, “MMV Pathogen Box Bioactivity Data” (2017).
In brackets after ≈: the same amount, converted by molar mass.

Assays:
Type in all cases: functional
[1] = system: Mycobacterium tuberculosis; assay: AntiMycobacterium tuberculosis activity Non-Replicating form: Average MIC90 (uM)
[2] = system: Mycobacterium tuberculosis; assay: AntiMycobacterium tuberculosis activity 1-week GAST/Fe MIC (uM); conditions: 168 h
[3] = system: Mycobacterium tuberculosis; assay: AntiMycobacterium tuberculosis activity 2-week GAST/Fe MIC (uM); conditions: 336 h
[4] = system: Mycobacterium tuberculosis; assay: AntiMycobacterium tuberculosis activity 1-week 7H9/ADC/Tw MIC (uM); conditions: 168 h
[5] = system: Mycobacterium tuberculosis; assay: AntiMycobacterium tuberculosis activity 2-week 7H9/ADC/Tw MIC (uM); conditions: 336 h
[6] = system: Mycobacterium tuberculosis; assay: AntiMycobacterium tuberculosis activity 2-week Alamar Blue 7H9/ADC/Tw MIC (uM); conditions: 336 h
[7] = system: Mycobacterium tuberculosis; assay: AntiMycobacterium tuberculosis activity 1-week 7H9/glucose/BSA/Tx MIC (uM); conditions: 168 h
[8] = system: Mycobacterium tuberculosis; assay: AntiMycobacterium tuberculosis activity 2-week 7H9/glucose/BSA/Tx MIC (uM); conditions: 336 h
[9] = system: Mycobacterium tuberculosis; assay: AntiMycobacterium tuberculosis activity 1-week 7H9/DPPC/cholesterol/BSA/Tx MIC (uM); conditions: 168 h
[10] = system: Mycobacterium tuberculosis; assay: AntiMycobacterium tuberculosis activity 2-week 7H9/DPPC/cholesterol/BSA/Tx MIC (uM); conditions: 336 h
[11] = system: Mycobacterium tuberculosis; assay: AntiMycobacterium tuberculosis activity 1-week 7H9/cholesterol/BSA/Tx MIC (uM); conditions: 168 h
[12] = system: Mycobacterium tuberculosis; assay: AntiMycobacterium tuberculosis activity 2-week Alamar Blue 7H9/cholesterol/BSA/Tx MIC (uM); conditions: 336 h
[13] = system: Mycobacterium tuberculosis; assay: (§1) AntiMycobacterium tuberculosis activity day 10 in 7H9/2.5mM butyrate/pH6/0.1mM nitrite MIC90 (uM); conditions: 240 h
[14] = system: Mycobacterium tuberculosis; assay: AntiMycobacterium tuberculosis activity day 21 in 7H9/2.5mM butyrate/pH6/0.1mM nitrite MIC90 (uM); conditions: 504 h
[15] = system: Mycobacterium tuberculosis; assay: as §1; conditions: 240 h; remark: listed apart in the source
[16] = system: Mycobacterium tuberculosis; assay: AntiMycobacterium tuberculosis activity day 21 MIC99 in 7H9/2.5mM butyrate/pH6/0.1mM nitrite MIC99 (uM); conditions: 504 h
[17] = system: Mycobacterium tuberculosis; assay: AntiMycobacterium tuberculosis activity Replicating form: Average MIC90 (uM)
HepG2 = assay: HepG2 CC50 (uM) Cytotoxicity; conditions: Homo sapiens

Cc1cc(OCC(=O)NCc2ccccc2)c2cc(Br)ccc2n1
MIC90 [1]: 21.2 µM (≈ 8.17 µg/mL) | MIC [2]: 0.2 µM (≈ 0.0771 µg/mL) | MIC [3]: 0.39 µM (≈ 0.15 µg/mL) | MIC [4]: 50 µM (≈ 19.3 µg/mL) | MIC [5]: > 50 µM | MIC [6]: 4.7 µM (≈ 1.81 µg/mL) | MIC [7]: 37 µM (≈ 14.3 µg/mL) | MIC [8]: 50 µM (≈ 19.3 µg/mL) | MIC [9]: 3.13 µM (≈ 1.21 µg/mL) | MIC [10]: 25 µM (≈ 9.63 µg/mL) | MIC [11]: 2.3 µM (≈ 0.886 µg/mL) | MIC [12]: 1.56 µM (≈ 0.601 µg/mL) | MIC90 [13]: 1.5 µM (≈ 0.578 µg/mL) | MIC90 [14]: 6.25 µM (≈ 2.41 µg/mL) | MIC90 [15]: 25 µM (≈ 9.63 µg/mL) | MIC [16]: > 50 µM | MIC90 [17]: > 100 µM | CC50 (HepG2): 31 µM

N#Cc1ccc(-c2ccc(OCC(N)=O)cc2)cc1
MIC90 [1]: 13.7 µM (≈ 3.46 µg/mL) | MIC [2]: 4.7 µM (≈ 1.19 µg/mL) | MIC [3]: 4.7 µM (≈ 1.19 µg/mL) | MIC [4]: 37 µM (≈ 9.33 µg/mL) | MIC [5]: > 50 µM | MIC [6]: 50 µM (≈ 12.6 µg/mL) | MIC [7]: 25 µM (≈ 6.31 µg/mL) | MIC [8]: 50 µM (≈ 12.6 µg/mL) | MIC [9]: 12.5 µM (≈ 3.15 µg/mL) | MIC [10]: 50 µM (≈ 12.6 µg/mL) | MIC [11]: 12.5 µM (≈ 3.15 µg/mL) | MIC [12]: ≥ 50 µM | MIC90 [13]: 25 µM (≈ 6.31 µg/mL) | MIC90 [14]: 25 µM (≈ 6.31 µg/mL) | MIC90 [15]: > 50 µM | MIC [16]: > 50 µM | MIC90 [17]: 23.2 µM (≈ 5.86 µg/mL) | CC50 (HepG2): > 100 µM

CCc1ccc([C@@H]2C[C@H](C(F)(F)F)n3ncc(C(=O)NCc4ccc(OC)cc4)c3N2)cc1
MIC90 [1]: 1.13 µM (≈ 0.518 µg/mL) | MIC [2]: 0.1 µM (≈ 0.0458 µg/mL) | MIC [3]: 0.1 µM (≈ 0.0458 µg/mL) | MIC [4]: 0.78 µM (≈ 0.358 µg/mL) | MIC [5]: 1.56 µM (≈ 0.715 µg/mL) | MIC [6]: 1.56 µM (≈ 0.715 µg/mL) | MIC [7]: 0.6 µM (≈ 0.275 µg/mL) | MIC [8]: 0.78 µM (≈ 0.358 µg/mL) | MIC [9]: 0.2 µM (≈ 0.0917 µg/mL) | MIC [10]: 0.3 µM (≈ 0.138 µg/mL) | MIC [11]: 0.2 µM (≈ 0.0917 µg/mL) | MIC [12]: 0.39 µM (≈ 0.179 µg/mL) | MIC90 [13]: 6.25 µM (≈ 2.87 µg/mL) | MIC90 [14]: 12.5 µM (≈ 5.73 µg/mL) | MIC90 [15]: > 50 µM | MIC [16]: > 50 µM | MIC90 [17]: 0.24 µM (≈ 0.11 µg/mL) | CC50 (HepG2): 50.6 µM

Cc1cc(C)c2cc(C(=O)NC3CCCCCCC3)[nH]c2c1
MIC90 [1]: 0.01 µM (≈ 0.00298 µg/mL) | MIC [2]: < 0.02 µM | MIC [3]: < 0.02 µM | MIC [4]: < 0.02 µM | MIC [5]: 0.02 µM (≈ 0.00597 µg/mL) | MIC [6]: 0.02 µM (≈ 0.00597 µg/mL) | MIC [7]: < 0.02 µM | MIC [8]: < 0.02 µM | MIC [9]: < 0.02 µM | MIC [10]: < 0.02 µM | MIC [11]: < 0.02 µM | MIC [12]: < 0.02 µM | MIC90 [13]: ≤ 0.04 µM | MIC90 [14]: ≤ 0.04 µM | MIC90 [15]: > 50 µM | MIC [16]: > 50 µM | MIC90 [17]: 0.01 µM (≈ 0.00298 µg/mL) | CC50 (HepG2): > 100 µM

CC(Oc1ccccc1)C(=O)Nc1nc(-c2ccccn2)cs1 (configuration not stated)
MIC90 [1]: 41.7 µM (≈ 13.6 µg/mL) | MIC [2]: 1.56 µM (≈ 0.508 µg/mL) | MIC [3]: 2.3 µM (≈ 0.748 µg/mL) | MIC [4]: 12.5 µM (≈ 4.07 µg/mL) | MIC [5]: 12.5 µM (≈ 4.07 µg/mL) | MIC [6]: 12.5 µM (≈ 4.07 µg/mL) | MIC [7]: 12.5 µM (≈ 4.07 µg/mL) | MIC [8]: 50 µM (≈ 16.3 µg/mL) | MIC [9]: 25 µM (≈ 8.13 µg/mL) | MIC [10]: > 50 µM | MIC [11]: 9.4 µM (≈ 3.06 µg/mL) | MIC [12]: 19 µM (≈ 6.18 µg/mL) | MIC90 [13]: 12.5 µM (≈ 4.07 µg/mL) | MIC90 [14]: 12.5 µM (≈ 4.07 µg/mL) | MIC90 [15]: 6.25 µM (≈ 2.03 µg/mL) | MIC [16]: 6.25 µM (≈ 2.03 µg/mL) | MIC90 [17]: 91.3 µM (≈ 29.7 µg/mL) | CC50 (HepG2): 29.3 µM

CN1CCN(CCCOc2ncc(Nc3ncc(-c4ccc(C(F)(F)F)c(F)c4)nc3C(N)=O)cn2)CC1
MIC90 [1]: 3.1 µM (≈ 1.66 µg/mL) | MIC [2]: 1.56 µM (≈ 0.834 µg/mL) | MIC [3]: 1.56 µM (≈ 0.834 µg/mL) | MIC [4]: 1.2 µM (≈ 0.641 µg/mL) | MIC [5]: 1.56 µM (≈ 0.834 µg/mL) | MIC [6]: 1.56 µM (≈ 0.834 µg/mL) | MIC [7]: 1.2 µM (≈ 0.641 µg/mL) | MIC [8]: 1.56 µM (≈ 0.834 µg/mL) | MIC [9]: 0.2 µM (≈ 0.107 µg/mL) | MIC [10]: 0.6 µM (≈ 0.321 µg/mL) | MIC [11]: 0.39 µM (≈ 0.208 µg/mL) | MIC [12]: 0.6 µM (≈ 0.321 µg/mL) | MIC90 [13]: 0.78 µM (≈ 0.417 µg/mL) | MIC90 [14]: 1.5 µM (≈ 0.802 µg/mL) | MIC90 [15]: 12.5 µM (≈ 6.68 µg/mL) | MIC [16]: 12.5 µM (≈ 6.68 µg/mL) | MIC90 [17]: 3.46 µM (≈ 1.85 µg/mL) | CC50 (HepG2): 3.9 µM

CCCCS(=O)(=O)Nc1ccc2cnn(C)c2c1
MIC90 [1]: 1.39 µM (≈ 0.372 µg/mL) | MIC [2]: 0.3 µM (≈ 0.0802 µg/mL) | MIC [3]: 0.6 µM (≈ 0.16 µg/mL) | MIC [4]: 0.6 µM (≈ 0.16 µg/mL) | MIC [5]: 0.6 µM (≈ 0.16 µg/mL) | MIC [6]: 0.6 µM (≈ 0.16 µg/mL) | MIC [7]: 0.39 µM (≈ 0.104 µg/mL) | MIC [8]: 0.78 µM (≈ 0.209 µg/mL) | MIC [9]: 0.39 µM (≈ 0.104 µg/mL) | MIC [10]: 0.6 µM (≈ 0.16 µg/mL) | MIC [11]: 0.6 µM (≈ 0.16 µg/mL) | MIC [12]: 2.3 µM (≈ 0.615 µg/mL) | MIC90 [13]: 12.5 µM (≈ 3.34 µg/mL) | MIC90 [14]: 50 µM (≈ 13.4 µg/mL) | MIC90 [15]: > 50 µM | MIC [16]: 50 µM (≈ 13.4 µg/mL) | MIC90 [17]: 0.69 µM (≈ 0.184 µg/mL) | CC50 (HepG2): > 100 µM

CC(C)(C)c1cnc(NC(=O)c2ccccc2O)s1
MIC90 [1]: 21 µM (≈ 5.81 µg/mL) | MIC [2]: 19 µM (≈ 5.25 µg/mL) | MIC [3]: 25 µM (≈ 6.91 µg/mL) | MIC [4]: > 50 µM | MIC [5]: > 50 µM | MIC [6]: > 50 µM | MIC [7]: > 50 µM | MIC [8]: > 50 µM | MIC [9]: > 50 µM | MIC [10]: > 50 µM | MIC [11]: > 50 µM | MIC [12]: > 50 µM | MIC90 [13]: 50 µM (≈ 13.8 µg/mL) | MIC90 [14]: 50 µM (≈ 13.8 µg/mL) | MIC90 [15]: > 50 µM | MIC [16]: > 50 µM | MIC90 [17]: 81.9 µM (≈ 22.6 µg/mL) | CC50 (HepG2): 47.6 µM

CCCc1ccc(S(=O)(=O)Nc2ccc(CN3CCN(CC4CC4)CC3)cc2)cc1
MIC90 [1]: 47.4 µM (≈ 20.3 µg/mL) | MIC [2]: 12.5 µM (≈ 5.35 µg/mL) | MIC [3]: 12.5 µM (≈ 5.35 µg/mL) | MIC [4]: 19 µM (≈ 8.12 µg/mL) | MIC [5]: 19 µM (≈ 8.12 µg/mL) | MIC [6]: 19 µM (≈ 8.12 µg/mL) | MIC [7]: 9.4 µM (≈ 4.02 µg/mL) | MIC [8]: 9.4 µM (≈ 4.02 µg/mL) | MIC [9]: 4.7 µM (≈ 2.01 µg/mL) | MIC [10]: 6.25 µM (≈ 2.67 µg/mL) | MIC [11]: 6.25 µM (≈ 2.67 µg/mL) | MIC [12]: 6.25 µM (≈ 2.67 µg/mL) | MIC90 [13]: 50 µM (≈ 21.4 µg/mL) | MIC90 [14]: 50 µM (≈ 21.4 µg/mL) | MIC90 [15]: > 50 µM | MIC [16]: > 50 µM | MIC90 [17]: 18.7 µM (≈ 8.01 µg/mL) | CC50 (HepG2): 17.7 µM
